The record followed here is publication PMC7180948, “New Insights into 4-Anilinoquinazolines as Inhibitors of Cardiac Troponin I–Interacting Kinase (TNNi3K)” (Molecules, 2020).

What all share (experiment): biochemical
What all share (design): KINOMEscan competition binding panel (Eurofins DiscoverX), single concentration, % inhibition
Conditions in all cases: read-out: 7 at 1 µM % inhibition

In one assay the target is ALK(L1196M) (Homo sapiens, UniProt Q9UM73, L1196M). An outline of the steps:
(§1)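 KINOMEscan selectivity screen; >400 human kinases; compound at 1 µM, single concentration.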

Another assay has as its target T1, VPS34 (Homo sapiens, UniProt Q8NEB9).
T1 construct: gene PIK3C3
An outline of the steps: as §1

Another assay deals with FLT3(D835H) (Homo sapiens, UniProt P36888, D835H). An outline of the steps:
as §1

A further assay deals with MYLK4 (Homo sapiens, UniProt Q86YV6). The essentials:
as §1

The target in another assay is T2, PIP5K2B (Homo sapiens, UniProt P78356).
T2 construct: gene PIP4K2B
An outline of the steps: as §1

The target of the next assay is LRRK2(G2019S) (Homo sapiens, UniProt Q5S007, G2019S). The essentials:
as §1

A further assay addresses T3, MST3 (Homo sapiens, UniProt Q9Y6E0).
T3 construct: gene STK24
The essentials: as §1

A further assay concerns the target T4, ERK4 (Homo sapiens, UniProt P31152).
T4 construct: gene MAPK4
An outline of the steps:
as §1

For another assay, the target named is EPHB4 (Homo sapiens, UniProt P54760). The essentials:
as §1

Assay [1] has as its target T5, TYK2(JH2domain-pseudokinase) (Homo sapiens, UniProt P29597).
T5 construct: JH2domain-pseudokinase
The essentials: as §1

The target in another assay is MAP3K2 (Homo sapiens, UniProt Q9Y2U5). An outline of the steps:
as §1

Another assay deals with TRPM6 (Homo sapiens, UniProt Q9BX84). An outline of the steps:
as §1

The next assay deals with MAP4K5 (Homo sapiens, UniProt Q9Y4K4). The essentials: as §1
The target of another assay is T6, MST2 (Homo sapiens, UniProt Q13188).
T6 construct: gene STK3
The essentials: as §1

The target in assay [2] is T7, RSK3(Kin.Dom.2-C-terminal) (Homo sapiens, UniProt Q15349).
T7 construct: gene RPS6KA2; Kin.Dom.2-C-terminal
T7 sequence (Q15349 whole entry): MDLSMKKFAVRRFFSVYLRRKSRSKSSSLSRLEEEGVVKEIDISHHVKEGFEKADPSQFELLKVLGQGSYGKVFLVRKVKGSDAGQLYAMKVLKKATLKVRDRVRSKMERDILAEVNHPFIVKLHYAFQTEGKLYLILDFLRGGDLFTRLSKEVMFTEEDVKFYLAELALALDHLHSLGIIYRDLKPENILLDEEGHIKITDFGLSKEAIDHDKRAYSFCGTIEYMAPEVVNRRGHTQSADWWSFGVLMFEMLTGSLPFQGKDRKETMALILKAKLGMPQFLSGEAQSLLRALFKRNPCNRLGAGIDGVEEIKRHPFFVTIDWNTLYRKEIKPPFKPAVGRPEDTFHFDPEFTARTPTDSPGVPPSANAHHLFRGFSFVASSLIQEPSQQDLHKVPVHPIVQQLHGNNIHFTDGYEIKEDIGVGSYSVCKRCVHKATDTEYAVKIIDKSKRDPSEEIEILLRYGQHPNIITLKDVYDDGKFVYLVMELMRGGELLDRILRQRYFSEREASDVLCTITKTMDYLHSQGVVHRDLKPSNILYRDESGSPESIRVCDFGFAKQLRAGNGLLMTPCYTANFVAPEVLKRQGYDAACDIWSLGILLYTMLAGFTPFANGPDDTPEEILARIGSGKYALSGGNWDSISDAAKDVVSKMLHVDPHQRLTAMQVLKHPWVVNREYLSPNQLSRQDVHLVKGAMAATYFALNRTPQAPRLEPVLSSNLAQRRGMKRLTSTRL
An outline of the steps: as §1

The next assay addresses T8, MKK7 (Homo sapiens, UniProt O14733).
T8 construct: gene MAP2K7
The essentials: as §1

The target of the next assay is CAMK2B (Homo sapiens, UniProt Q13554). The essentials:
as §1

In the next assay the target is T9, CAMK1B (Homo sapiens, UniProt Q6P2M8).
T9 construct: gene PNCK
T9 sequence (Q6P2M8 whole entry): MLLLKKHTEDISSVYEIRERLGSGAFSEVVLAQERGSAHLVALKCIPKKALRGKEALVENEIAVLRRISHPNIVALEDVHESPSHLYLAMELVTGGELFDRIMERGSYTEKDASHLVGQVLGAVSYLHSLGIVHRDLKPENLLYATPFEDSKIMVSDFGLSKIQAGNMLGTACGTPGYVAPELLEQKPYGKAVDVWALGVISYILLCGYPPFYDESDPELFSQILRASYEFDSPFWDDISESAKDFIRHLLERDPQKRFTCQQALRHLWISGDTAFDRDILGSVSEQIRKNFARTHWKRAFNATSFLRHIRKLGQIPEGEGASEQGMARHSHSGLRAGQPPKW
An outline of the steps:
as §1

In a further assay the target is TTK (Homo sapiens, UniProt P33981). An outline of the steps: as §1
In another assay the target is HIPK3 (Homo sapiens, UniProt Q9H422). The essentials: as §1
Sequence of HIPK3 (Q9H422 whole entry): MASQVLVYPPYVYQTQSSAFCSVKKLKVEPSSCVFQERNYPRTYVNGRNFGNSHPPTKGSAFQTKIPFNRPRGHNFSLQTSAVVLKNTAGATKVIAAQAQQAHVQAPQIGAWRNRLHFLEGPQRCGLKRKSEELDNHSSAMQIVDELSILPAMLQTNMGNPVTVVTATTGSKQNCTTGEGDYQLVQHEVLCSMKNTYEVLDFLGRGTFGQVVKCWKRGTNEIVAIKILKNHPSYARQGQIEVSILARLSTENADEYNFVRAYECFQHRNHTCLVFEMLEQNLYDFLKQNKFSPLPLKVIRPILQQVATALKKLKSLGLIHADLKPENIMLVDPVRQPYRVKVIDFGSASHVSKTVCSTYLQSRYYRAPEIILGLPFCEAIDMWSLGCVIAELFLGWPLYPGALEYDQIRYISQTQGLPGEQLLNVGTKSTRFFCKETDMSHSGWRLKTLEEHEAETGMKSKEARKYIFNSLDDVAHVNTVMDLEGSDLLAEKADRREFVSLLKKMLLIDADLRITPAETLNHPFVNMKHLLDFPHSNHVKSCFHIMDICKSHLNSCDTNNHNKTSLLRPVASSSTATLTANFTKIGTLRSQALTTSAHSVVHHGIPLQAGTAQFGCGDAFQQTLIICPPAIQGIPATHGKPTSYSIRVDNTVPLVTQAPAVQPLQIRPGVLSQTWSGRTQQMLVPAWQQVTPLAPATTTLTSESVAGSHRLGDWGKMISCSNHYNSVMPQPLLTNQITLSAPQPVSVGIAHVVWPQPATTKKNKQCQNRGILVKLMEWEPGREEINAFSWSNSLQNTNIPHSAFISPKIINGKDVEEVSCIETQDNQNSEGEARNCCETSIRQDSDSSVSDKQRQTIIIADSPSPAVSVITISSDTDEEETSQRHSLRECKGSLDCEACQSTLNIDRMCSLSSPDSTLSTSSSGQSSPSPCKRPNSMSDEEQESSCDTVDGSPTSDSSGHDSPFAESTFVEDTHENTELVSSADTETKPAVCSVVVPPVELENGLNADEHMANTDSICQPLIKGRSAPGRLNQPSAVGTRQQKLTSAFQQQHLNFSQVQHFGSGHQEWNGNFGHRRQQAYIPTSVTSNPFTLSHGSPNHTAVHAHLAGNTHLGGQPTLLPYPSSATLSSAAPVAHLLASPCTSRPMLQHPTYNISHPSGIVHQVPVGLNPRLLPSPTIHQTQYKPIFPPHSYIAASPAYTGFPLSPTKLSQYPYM
In a further assay the target is T10, SGK (Homo sapiens, UniProt O00141).
T10 construct: gene SGK1
T10 sequence (O00141 whole entry): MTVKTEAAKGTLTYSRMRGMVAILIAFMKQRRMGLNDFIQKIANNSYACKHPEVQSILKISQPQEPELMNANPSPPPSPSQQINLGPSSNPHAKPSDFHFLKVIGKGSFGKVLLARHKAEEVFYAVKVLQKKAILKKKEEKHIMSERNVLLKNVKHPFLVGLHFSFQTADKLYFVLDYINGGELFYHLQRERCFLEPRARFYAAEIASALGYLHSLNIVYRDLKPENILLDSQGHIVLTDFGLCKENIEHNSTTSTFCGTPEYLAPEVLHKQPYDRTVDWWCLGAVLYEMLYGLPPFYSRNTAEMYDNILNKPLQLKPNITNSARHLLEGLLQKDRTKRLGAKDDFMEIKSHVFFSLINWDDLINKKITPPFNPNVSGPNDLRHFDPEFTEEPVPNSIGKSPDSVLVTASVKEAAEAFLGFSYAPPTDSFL
The essentials:
as §1

Assay [3] has as its target T11, RSK3(Kin.Dom.1-N-terminal) (Homo sapiens, UniProt Q15349).
T11 construct: gene RPS6KA2; Kin.Dom.1-N-terminal
An outline of the steps:
as §1

The target of another assay is AURKC (Homo sapiens, UniProt Q9UQB9). The essentials: as §1
Sequence of AURKC (Q9UQB9 whole entry): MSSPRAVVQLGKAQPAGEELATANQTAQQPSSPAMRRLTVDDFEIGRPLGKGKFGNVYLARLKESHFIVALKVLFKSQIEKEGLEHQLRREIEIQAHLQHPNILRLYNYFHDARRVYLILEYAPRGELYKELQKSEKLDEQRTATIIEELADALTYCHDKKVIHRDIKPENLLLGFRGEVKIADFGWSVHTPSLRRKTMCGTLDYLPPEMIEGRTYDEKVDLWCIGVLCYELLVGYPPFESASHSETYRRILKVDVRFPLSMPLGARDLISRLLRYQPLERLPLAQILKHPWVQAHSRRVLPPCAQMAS

T11 sequence (Q15349 whole entry): as the sequence (Q15349 whole entry) above
T1 sequence (Q8NEB9 whole entry): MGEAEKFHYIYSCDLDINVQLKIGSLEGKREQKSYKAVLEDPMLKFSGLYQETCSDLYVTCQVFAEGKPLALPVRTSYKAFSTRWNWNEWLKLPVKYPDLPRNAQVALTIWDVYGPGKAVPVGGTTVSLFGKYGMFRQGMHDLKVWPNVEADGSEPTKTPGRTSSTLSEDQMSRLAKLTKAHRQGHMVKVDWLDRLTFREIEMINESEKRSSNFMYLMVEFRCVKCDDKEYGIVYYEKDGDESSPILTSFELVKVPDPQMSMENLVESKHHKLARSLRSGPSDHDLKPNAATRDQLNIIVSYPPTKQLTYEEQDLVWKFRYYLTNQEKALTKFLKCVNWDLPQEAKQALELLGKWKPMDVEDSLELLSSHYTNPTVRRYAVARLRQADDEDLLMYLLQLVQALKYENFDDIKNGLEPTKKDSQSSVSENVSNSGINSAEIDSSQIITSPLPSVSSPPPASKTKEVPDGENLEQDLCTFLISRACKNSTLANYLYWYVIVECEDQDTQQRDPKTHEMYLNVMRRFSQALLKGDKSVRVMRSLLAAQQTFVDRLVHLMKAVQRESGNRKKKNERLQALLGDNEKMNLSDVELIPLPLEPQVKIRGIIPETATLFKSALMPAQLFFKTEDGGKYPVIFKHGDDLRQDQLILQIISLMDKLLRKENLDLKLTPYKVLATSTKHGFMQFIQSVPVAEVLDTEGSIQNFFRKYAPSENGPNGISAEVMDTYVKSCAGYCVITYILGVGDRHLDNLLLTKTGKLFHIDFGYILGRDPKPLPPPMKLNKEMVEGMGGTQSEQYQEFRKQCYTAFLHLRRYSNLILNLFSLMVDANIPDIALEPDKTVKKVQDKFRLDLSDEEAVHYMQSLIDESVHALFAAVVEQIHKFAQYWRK
Sequence of MYLK4 (Q86YV6 whole entry): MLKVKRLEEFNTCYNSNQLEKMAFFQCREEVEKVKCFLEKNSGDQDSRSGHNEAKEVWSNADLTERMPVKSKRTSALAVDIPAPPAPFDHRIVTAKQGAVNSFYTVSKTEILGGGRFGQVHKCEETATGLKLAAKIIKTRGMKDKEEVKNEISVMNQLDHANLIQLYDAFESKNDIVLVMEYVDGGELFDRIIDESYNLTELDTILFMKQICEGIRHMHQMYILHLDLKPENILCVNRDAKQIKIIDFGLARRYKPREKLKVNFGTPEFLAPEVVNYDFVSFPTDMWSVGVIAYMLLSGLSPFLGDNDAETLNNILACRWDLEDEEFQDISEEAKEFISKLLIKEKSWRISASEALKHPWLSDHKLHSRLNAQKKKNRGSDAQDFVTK
Sequence of CAMK2B (Q13554 whole entry): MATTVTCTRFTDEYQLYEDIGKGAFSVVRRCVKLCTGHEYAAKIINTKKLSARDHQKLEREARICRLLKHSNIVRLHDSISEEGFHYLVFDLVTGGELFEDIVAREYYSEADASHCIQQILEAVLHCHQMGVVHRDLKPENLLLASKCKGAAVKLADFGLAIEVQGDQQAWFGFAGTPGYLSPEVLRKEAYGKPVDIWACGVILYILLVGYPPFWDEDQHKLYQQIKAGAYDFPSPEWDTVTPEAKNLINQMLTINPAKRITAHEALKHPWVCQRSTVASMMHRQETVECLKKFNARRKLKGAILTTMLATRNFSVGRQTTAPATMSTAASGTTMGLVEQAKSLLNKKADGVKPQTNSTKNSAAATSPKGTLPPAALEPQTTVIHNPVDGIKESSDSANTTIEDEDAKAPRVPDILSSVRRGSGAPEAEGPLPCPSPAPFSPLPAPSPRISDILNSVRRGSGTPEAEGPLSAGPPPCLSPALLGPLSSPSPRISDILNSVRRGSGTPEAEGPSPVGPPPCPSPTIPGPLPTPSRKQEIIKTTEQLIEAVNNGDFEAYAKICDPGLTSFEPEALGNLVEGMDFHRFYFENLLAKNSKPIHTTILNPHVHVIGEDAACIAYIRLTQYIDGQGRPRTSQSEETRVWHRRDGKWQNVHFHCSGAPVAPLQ

Broadly, the inhibition is how much of the control response was suppressed. Regarding `CNS(=O)(=O)c1ccc(N(C)C)c(Nc2ncnc3cc(OC)c(OC)cc23)c1` [compound 7, 3-((6,7-dimethoxyquinazolin-4-yl)amino)-4-(dimethylamino)-N-methylbenzenesulfonamide], the inhibition at 1 µM at ALK(L1196M) was 5%; on VPS34 it was 18%; on FLT3(D835H) it was 20%; on MYLK4 it was 0%; at PIP5K2B, 0%; at LRRK2(G2019S) it was 23%. Also, the inhibition at 1 µM turned out to be 0% on MST3; 0% on ERK4; 0% on EPHB4; 0% in [1]; 12% on MAP3K2; 25% at TRPM6. The inhibition at 1 µM was found to be 0% at MAP4K5; 0% at MST2; 0% in [2]; 42% on MKK7; 11% at CAMK2B; 46% at CAMK1B. Also, the inhibition at 1 µM stood at 7% on TTK; 0% on HIPK3; 1% at SGK; 0% in assay [3]; 0% at AURKC.
